In patent US20170100396A1 (priority 2015, published 2017):
Read-outs that look alike come from different tables or passages of the source.

Columns and labels:
[1] = target: PB2 cap binding domain (PB2-CBD) (residues 318-483) (Influenza A virus (A/duck/Shantou/4610/2003(H5N1)), UniProt Q2LG68); parameters: species or system avian influenza strain A/duck/Shantou/4610/2003(H5N1)
[2] = tested on: influenza A virus (IAV) A/Aichi/2/68 (H3N2); assay: microbe, parasite or virus in culture; assay type: cell-based, influenza A virus in MDCK cells; details: Influenza A virus
in vitro = details: dog
[3] = H3N2, MDCK, 48 h, read-out: CPE IC50

O=C(NCC1CC1)c1c[nH]c2ncc(-c3ccccc3Cl)nc12
Fp (result in words) [1]: No displacement

N#Cc1cccc(CNC(=O)[C@H](NC(=O)c2c[nH]c3ncc(C4CC4)nc23)C2CC2)c1
IC50 [2, 3]: 12.4 µM | CC50 (in vitro): > 50 µM

O=C(N[C@@H](C(=O)NCc1ccc(Cl)cc1Cl)C1CC1)c1c[nH]c2ncc(C3CC3)nc12
IC50 [2, 3]: 11.2 µM | CC50 (in vitro): > 12.5 µM

CC(C)c1cnc2[nH]cc(C(=O)NCC(C)(C)C)c2n1
IC50 [2, 3]: 52.2 µM | Fp (result in words) [1]: No displacement

CS(=O)(=O)c1cccc(CNC(=O)c2c[nH]c3ncc(-c4ccccc4Cl)nc23)c1
IC50 ([2]; H3N2, read-out: CPE IC50): 22.5 µM | Fp (result in words) [1]: No displacement

O=C(NCCc1ccccc1)c1c[nH]c2ncc(C3CC3)nc12
IC50 [2, 3]: 66.9 µM | CC50 (in vitro): > 100 µM

COC(=O)c1cccc(CNC(=O)[C@H](NC(=O)c2c[nH]c3ncc(C4CC4)nc23)C2CC2)c1
IC50 [2, 3]: 4.8 µM | CC50 (in vitro): 63.9 µM

O=C(N[C@@H](C(=O)N1CCOCC1)C1CC1)c1c[nH]c2ncc(C3CC3)nc12
IC50 [2, 3]: > 100 µM

CC(C)c1cnc2[nH]cc(C(=O)NC3CCOC3(C)C)c2n1 (centres unmarked)
IC50 [2, 3]: > 100 µM

CC(C)C[C@@H](NC(=O)c1c[nH]c2ncc(C3CC3)nc12)C(=O)NCC(=O)NC1CCCC1
IC50 [2, 3]: > 100 µM

O=C(N[C@@H](C(=O)NCc1cccc(F)c1)C1CC1)c1c[nH]c2ncc(C3CC3)nc12
IC50 [2, 3]: 9.2 µM

O=C(N[C@@H](C(=O)N1CC2(CCC2)C1)C1CC1)c1c[nH]c2ncc(C3CC3)nc12
IC50 [2, 3]: > 100 µM

CN1CCN(C(=O)CCNC(=O)[C@H](NC(=O)c2c[nH]c3ncc(C4CC4)nc23)C2CC2)CC1
IC50 [2, 3]: > 100 µM

O=C(N[C@@H](C(=O)N1CCC(C(=O)O)C1)C1CCCCC1)c1c[nH]c2ncc(C3CC3)nc12 (some centres unmarked)
inhibition at 5 µM ([2]; H3N2, read-out: % CPE reduction): 11.6%
